Data reported in patent publication EP2876156A1 (COMMISSARIAT A L'ENERGIE ATOMIQUE ET AUX ENERGIES …, priority 2013, dated 2015).

How the values were obtained:
ENZ5 (SEQ ID NO:9) = molecular target: T1, ENZ5 (SEQ ID NO:9) (Niastella koreensis, UniProt G8T8D0); assay: Hydroxylation capability, HPLC analysis of reaction media after derivatization; type: biochemical
T1 construct: His6 (hexahistidine, inserted after the initial methionine) (N); made in house; host or cells: E. coli BL21(DE3) plysE
T1 sequence (G8T8D0 1-371): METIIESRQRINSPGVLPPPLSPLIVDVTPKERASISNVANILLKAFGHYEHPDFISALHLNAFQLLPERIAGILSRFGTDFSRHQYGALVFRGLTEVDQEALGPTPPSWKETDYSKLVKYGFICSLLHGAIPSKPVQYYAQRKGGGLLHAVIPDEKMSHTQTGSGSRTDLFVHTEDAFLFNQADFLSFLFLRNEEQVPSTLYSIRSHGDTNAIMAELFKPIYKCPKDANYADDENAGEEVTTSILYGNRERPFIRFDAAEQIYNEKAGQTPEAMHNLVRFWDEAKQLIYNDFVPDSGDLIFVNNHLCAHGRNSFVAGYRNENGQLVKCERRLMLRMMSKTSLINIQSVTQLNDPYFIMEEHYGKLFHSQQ
Description: (§1) Enzymes (0.08 mg/mL) were screened against substrates (molar ratio α-ketoglutarate/substrate 15/10) in Hepes buffer 50 mM pH 7,5, with Mohr's salt at 1mM and without sodium ascorbate, at room temperature for three hours. The potential conversions of the substrates were determined by HPLC after Fmoc-Cl derivatization as section III here above.
(§2) The hydroxylation capability of two other enzymes, namely ENZ6 (SEQ ID NO:10) and ENZ5 (SEQ ID NO:9) were also assessed. The amino sequence of ENZ6 has 79% of amino acid identity with SEQ ID NO:2 of ENZ2 while the amino sequence of ENZ5 has 72% of amino acid identity with SEQ ID NO:3 of ENZ3. […] As shown in part VI, ENZ6 and ENZ5 provide (4R)-hydroxy-L-lysine from L-lysine similarly to ENZ2 and ENZ3. Thus ENZ6 and ENZ5 are likely to have the same substrate selectivity and provide similar products as ENZ2 and ENZ3.

ENZ6 (SEQ ID NO:10) = molecular target: T2, ENZ6 (SEQ ID NO:10) (Flavobacterium sp., UniProt J3BZS6); assay: as above; type: biochemical
T2 construct: His6 (hexahistidine, inserted after the initial methionine) (N); made in house; host or cells: E. coli BL21(DE3) plysE
Description: as §1, §2

ENZ2 (SEQ ID NO:2) = molecular target: T3, ENZ2 (SEQ ID NO:2) (Flavobacterium johnsoniae, UniProt A5FF23); assay: Enzymatic hydroxylation of L-lysine, 10 mL scale, conversion by HPLC (protocol A); type: biochemical; details: with ENZ2 0.086 mg/mL; otherwise as ENZ1 protocol (L-lysine 10 mM, room temperature, 18h)
T3 construct: His6 (hexahistidine, inserted after the initial methionine) (N); made in house; host or cells: E. coli BL21(DE3) plysE
Description: (§3) Enzymatic reaction medium (0.2 µmole, leq.), borate buffer 0,2M pH 7.7 (80 µL) and Fmoc-Cl solution7.5 mM in acetone (100 µL, 0.75 µmole, 3.75 eq) were hand shaked in a closed 1.50 mL eppendorf for one minute. The aqueous layer was extracted with petroleum ether (3*1 mL) to eliminate excess of Fmoc-Cl. 70 µL of the aqueous phase were withdrawn, diluted with 70 µL of acetonitrile and injected into the HPLC. For substrates with two amine functions, 100 µL of Fmoc-Cl solution 15 mM were used.
(§4) Conditions for HPLC analysis: Atlantis® T3 (3 µm 4.5*150 mm) at 35°C with the gradient 50-86% eluent B (MeCN + 0.1% TFA) and eluent A (H2O + 0.1% TFA) in 20 min at 1 mL/min.
(§5) Enzymatic reaction was carried out in 250 mL glass erlenmeyer flask for a total volume of 4*10 mL. […] The conversion of L-lysine into 3-hydroxy-L-lysine (94%) was determined by HPLC after derivatization with Fmoc-Cl according to protocol A.
(§6) The protocol used was the same as that described above for the hydroxylation by ENZ1 except that the enzyme concentrations used were different (ENZ2: 0.086 mg/mL; ENZ3: 0.031 mg/mL). Conversions were determined by HPLC after derivatization with Fmoc-Cl according to protocol A as described above. […]

ENZ3 SEQ ID NO:3 = molecular target: T4, ENZ3 SEQ ID NO:3 (Chitinophaga pinensis, UniProt C7PLM6); assay: as above; type: biochemical; details: printed 'with ENZ1'; protocol lists ENZ3 0.031 mg/mL; otherwise as ENZ1 protocol (L-lysine 10 mM, room temperature, 18h)
T4 construct: His6 (hexahistidine, inserted after the initial methionine) (N); made in house; host or cells: E. coli BL21(DE3) plysE
T4 sequence (C7PLM6 1-382): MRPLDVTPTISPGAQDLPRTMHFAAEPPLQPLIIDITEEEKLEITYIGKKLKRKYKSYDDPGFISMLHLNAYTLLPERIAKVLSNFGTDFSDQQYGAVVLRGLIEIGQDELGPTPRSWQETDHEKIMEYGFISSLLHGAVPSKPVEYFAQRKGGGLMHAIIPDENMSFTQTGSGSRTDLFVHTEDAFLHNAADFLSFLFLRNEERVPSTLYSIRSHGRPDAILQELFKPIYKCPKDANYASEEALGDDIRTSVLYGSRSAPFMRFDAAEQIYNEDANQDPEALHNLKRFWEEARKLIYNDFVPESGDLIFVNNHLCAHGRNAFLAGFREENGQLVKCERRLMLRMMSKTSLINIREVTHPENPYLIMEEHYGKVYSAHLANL
Description: as §3, §4, §5, §6

[1] = system: ENZ1 (SEQ ID NO:1) and ENZ2 (SEQ ID NO:2); assay: Cascade dihydroxylation of L-lysine, conversion by HPLC (protocol A); type: biochemical, Catenulispora acidiphila; Flavobacterium johnsoniae; details: ENZ1 0.13 mg/mL 3h, then ENZ2 added, 18 h, room temperature
Description: as §3, §4
Enzymatic reaction was carried out in 250 mL glass erlenmeyer flask for a total volume of 4*10 mL. Water (5.6 mL), Hepes buffer 1M pH 7.50 (0.5 mL, 50 mM), L-lysine […] (1 mL, 10 mM), α-ketoglutarate 150 mM (1 mL, 15 mM), sodium ascorbate 100 mM (0.25 mL, 2,5 mM), ammonium Iron(II) sulfate hexahydrate 10 mM (1 mL, 1 mM) were poured into the erlenmeyer. The reaction was started by ENZ1 addition (1.99 mg/mL, 0.65 mL, final concentration 0.13 mg/mL). […] The conversion (90%) was determined by HPLC after derivatization with Fmoc-Cl according to protocol A. The assembled reaction mixtures were acidified with 200 µL of TFA then centrifuged. […]

T3 sequence (A5FF23 whole entry): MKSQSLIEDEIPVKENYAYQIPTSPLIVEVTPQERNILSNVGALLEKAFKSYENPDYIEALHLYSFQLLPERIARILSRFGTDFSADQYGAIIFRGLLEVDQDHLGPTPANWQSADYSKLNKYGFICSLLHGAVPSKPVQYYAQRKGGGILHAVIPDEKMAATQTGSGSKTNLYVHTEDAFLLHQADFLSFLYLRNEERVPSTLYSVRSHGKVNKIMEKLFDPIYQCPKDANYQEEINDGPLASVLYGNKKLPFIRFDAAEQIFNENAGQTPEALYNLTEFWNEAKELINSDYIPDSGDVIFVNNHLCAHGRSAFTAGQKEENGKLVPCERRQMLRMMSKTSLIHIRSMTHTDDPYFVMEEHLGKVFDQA
T2 sequence (J3BZS6 whole entry): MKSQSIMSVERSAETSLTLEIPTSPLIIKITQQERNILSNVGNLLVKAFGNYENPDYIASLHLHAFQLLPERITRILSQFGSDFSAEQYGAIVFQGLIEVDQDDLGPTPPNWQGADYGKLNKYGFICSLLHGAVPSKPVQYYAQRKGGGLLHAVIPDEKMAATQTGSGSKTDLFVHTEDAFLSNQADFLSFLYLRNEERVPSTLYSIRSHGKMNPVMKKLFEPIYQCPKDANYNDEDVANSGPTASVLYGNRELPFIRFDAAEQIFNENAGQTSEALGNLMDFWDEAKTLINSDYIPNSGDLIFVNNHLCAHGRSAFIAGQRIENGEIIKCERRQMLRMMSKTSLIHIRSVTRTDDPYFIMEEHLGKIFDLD

NCCCC[C@H](N)C(=O)O [L-lysine]
hydroxylation capability of ENZ5 (ENZ5 (SEQ ID NO:9)): capable of hydroxylating | hydroxylation capability of ENZ6 (ENZ6 (SEQ ID NO:10)): capable of hydroxylating | conversion of L-lysine into (4R)-hydroxy-L-lysine (ENZ2 (SEQ ID NO:2)): 91% | conversion of L-lysine into (4R)-hydroxy-L-lysine (ENZ3 SEQ ID NO:3): 96% | conversion (L-lysine dihydroxylation to 3,4-di-hydroxy-L-lysine) [1]: 90%
